Tests used:
[1] = system: Molt-4 human acute lymphoblastic leukemia cells; assay: Molt-4 cellular assay (cell viability, MTS); format: cell-based; conditions: 10% human serum, 48 hours
Description: Molt-4 (ATCC, Manassas, VA) human acute lymphoblastic leukemia cells were plated 50,000 cells per well in 96-well tissue culture plates in a total volume of 100 µL tissue culture medium supplemented with 10% human serum (Invitrogen, Carlsbad, CA) and treated with a 3-fold serial dilution of the compounds of interest from 5 µM to […]. Each concentration was tested in duplicate at least 3 separate times. The number of viable cells following 48 hours of compound treatment was determined using the CellTiter 96® Aqueous non-radioactive cell proliferation MTS assay according to manufacturer's recommendations (Promega Corp., Madison, WI).

[2] = system: mouse FL5.12 cells transfected with Bcl-xL; assay: FL5.12 cellular assay (cell viability, CellTiter-Glo); format: cell-based; conditions: IL-3-depleted, 3% FBS assay media, 24 hours, read-out: FL5.12 Bcl-xL, -IL3, EC50
Description: Cell viability was assayed using the CellTiter-Glo assay (Promega Corp., Madison, WI) according to the manufacturer instructions. Individual determinations were the result of duplicate values. […] Table 2. In Vitro Data

| SMILES | EC50 [1] | EC50 [2] |
| --- | --- | --- |
| O=C(Nc1nc2ccccc2s1)c1cccc2c1CN(c1ccc(-c3cnn(CC45CC6CC(CC(C6)C4)C5)c3)c(C(=O)O)n1)CC2 [Example 1, 6-[8-(1,3-benzothiazol-2-ylcarbamoyl)-3,4-dihydroisoquinolin-2(1H)-yl]-3-{1-[tricyclo[3.3.1.1^3,7]dec-1-ylmethyl]-1H-pyrazol-4-yl}pyridine-2-carboxylic acid] | 201 nM | 39 nM |
| O=C(Nc1nc2ccccc2s1)c1cccc2c1CN(c1ccc(-c3cnn(CC4C5CC6CC(C5)CC4C6)c3)c(C(=O)O)n1)CC2 (centres unmarked) [Example 10, 6-[8-(1,3-benzothiazol-2-ylcarbamoyl)-3,4-dihydroisoquinolin-2(1H)-yl]-3-[1-(tricyclo[3.3.1.1^3,7]dec-2-ylmethyl)-1H-pyrazol-4-yl]pyridine-2-carboxylic acid] | 487 nM | 29 nM |
| Cc1c(-c2ccc(N3CCc4cccc(C(=O)Nc5nc6ccccc6s5)c4C3)nc2C(=O)O)cc(C#N)n1CC12CC3CC(CC(C3)C1)C2 [Example 23, 6-[8-(1,3-benzothiazol-2-ylcarbamoyl)-3,4-dihydroisoquinolin-2(1H)-yl]-3-[5-cyano-2-methyl-1-(tricyclo[3.3.1.1^3,7]dec-1-ylmethyl)-1H-pyrrol-3-yl]pyridine-2-carboxylic acid] | 16 nM | < 1 nM |
| Cc1c(OC23CC4CC(CC(C4)C2)C3)cccc1-c1ccc(N2CCc3cccc(C(=O)Nc4nc5ccccc5s4)c3C2)nc1C(=O)O [Example 28, 6-[8-(1,3-benzothiazol-2-ylcarbamoyl)-3,4-dihydroisoquinolin-2(1H)-yl]-3-{2-methyl-3-[tricyclo[3.3.1.1^3,7]dec-1-yloxy]phenyl}pyridine-2-carboxylic acid] | 526 nM | 22 nM |
| COCCOC12CC3CC(CC(Cn4ncc(-c5ccc(N6CCc7cccc(C(=O)Nc8nc9ccccc9s8)c7C6)nc5C(=O)O)c4C)(C3)C1)C2 [Example 45, 6-[8-(1,3-benzothiazol-2-ylcarbamoyl)-3,4-dihydroisoquinolin-2(1H)-yl]-3-(1-{[3-(2-methoxyethoxy)tricyclo[3.3.1.1^3,7]dec-1-yl]methyl}-5-methyl-1H-pyrazol-4-yl)pyridine-2-carboxylic acid] | 4 nM | 0.9 nM |
| Cc1c(-c2ccc(N3CCc4cccc(C(=O)Nc5nc6ccccc6s5)c4C3)nc2C(=O)O)cccc1N(C)C(=O)C12CC3CC(CC(C3)C1)C2 [Example 52, 6-[8-(1,3-benzothiazol-2-ylcarbamoyl)-3,4-dihydroisoquinolin-2(1H)-yl]-3-(2-methyl-3-{methyl[tricyclo[3.3.1.1^3,7]dec-1-ylcarbonyl]amino}phenyl)pyridine-2-carboxylic acid] | 29 nM | 3 nM |
| Cc1c(-c2ccc(N3CCc4cccc(C(=O)Nc5nc6ccccc6s5)c4C3)nc2C(=O)O)cc(C#N)n1CC12CC3CC(CC(C)(C3)O1)C2 [Example 72, 6-[8-(1,3-benzothiazol-2-ylcarbamoyl)-3,4-dihydroisoquinolin-2(1H)-yl]-3-{5-cyano-2-methyl-1-[(3-methyl-2-oxatricyclo[3.3.1.1^3,7]dec-1-yl)methyl]-1H-pyrrol-3-yl}pyridine-2-carboxylic acid] | 35 nM | 0.2 nM |
| Cc1c(-c2ccc(N3CCc4cccc(C(=O)Nc5nc6ccccc6s5)c4C3)nc2C(=O)O)ccnc1SC12CC3CC(CC(C3)C1)C2 [Example 74, 6-[8-(1,3-benzothiazol-2-ylcarbamoyl)-3,4-dihydroisoquinolin-2(1H)-yl]-3'-methyl-2'-(tricyclo[3.3.1.1^3,7]dec-1-ylsulfanyl)-3,4'-bipyridine-2-carboxylic acid] |  | 7 nM |
| Cc1c(-c2ccc(N3CCc4cccc(C(=O)Nc5nc6cccnc6s5)c4C3)nc2C(=O)NS(C)(=O)=O)cnn1CC12CC3CC(CC(C3)C1)C2 [Example 75, 2-{6-[(methylsulfonyl)carbamoyl]-5-[5-methyl-1-(tricyclo[3.3.1.1^3,7]dec-1-ylmethyl)-1H-pyrazol-4-yl]pyridin-2-yl}-N-([1,3]thiazolo[5,4-b]pyridin-2-yl)-1,2,3,4-tetrahydroisoquinoline-8-carboxamide] |  | 3 nM |
| Cc1c(-c2ccc(N3CCc4cccc(C(=O)Nc5nc6ccccc6s5)c4C3)nc2C(=O)O)ccnc1NC12CC3CC(CC(C3)C1)C2 [Example 76, 6-[8-(1,3-benzothiazol-2-ylcarbamoyl)-3,4-dihydroisoquinolin-2(1H)-yl]-3'-methyl-2'-(tricyclo[3.3.1.1^3,7]dec-1-ylamino)-3,4'-bipyridine-2-carboxylic acid] |  | 71 nM |
| Cc1c(-c2ccc(N3CCc4cccc(C(=O)Nc5cn6ncccc6n5)c4C3)nc2C(=O)O)cnn1CC12CC3CC(CC(C3)C1)C2 [Example 77, 6-[8-(imidazo[1,2-b]pyridazin-2-ylcarbamoyl)-3,4-dihydroisoquinolin-2(1H)-yl]-3-[5-methyl-1-(tricyclo[3.3.1.1^3,7]dec-1-ylmethyl)-1H-pyrazol-4-yl]pyridine-2-carboxylic acid] |  | 4 nM |
| Cc1c(-c2ccc(N3CCc4cccc(C(=O)Nc5nc6ccncc6s5)c4C3)nc2C(=O)O)cnn1CC12CC3CC(CC(C3)C1)C2 [Example 78, 3-[5-methyl-1-(tricyclo[3.3.1.1^3,7]dec-1-ylmethyl)-1H-pyrazol-4-yl]-6-[8-([1,3]thiazolo[5,4-c]pyridin-2-ylcarbamoyl)-3,4-dihydroisoquinolin-2(1H)-yl]pyridine-2-carboxylic acid] |  | 3 nM |
| COC1(Cn2ncc(-c3ccc(N4CCc5cccc(C(=O)Nc6nc7ccccc7s6)c5C4)nc3C(=O)O)c2C)CCCC2(CC2)C1 (centres unmarked) [Example 79, 6-[8-(1,3-benzothiazol-2-ylcarbamoyl)-3,4-dihydroisoquinolin-2(1H)-yl]-3-{1-[(5-methoxyspiro[2.5]oct-5-yl)methyl]-5-methyl-1H-pyrazol-4-yl}pyridine-2-carboxylic acid] |  | 0.9 nM |
| COCCOCCOCCOC12CC3CC(CC(Cn4ncc(-c5ccc(N6CCc7cccc(C(=O)Nc8nc9ccccc9s8)c7C6)nc5C(=O)O)c4C)(C3)C1)C2 [Example 80, 6-[8-(1,3-benzothiazol-2-ylcarbamoyl)-3,4-dihydroisoquinolin-2(1H)-yl]-3-(1-{[3-{2-[2-(2-methoxyethoxy)ethoxy]ethoxy}tricyclo[3.3.1.1^3,7]dec-1-yl]methyl}-5-methyl-1H-pyrazol-4-yl)pyridine-2-carboxylic acid] |  | 1 nM |
| O=C(Nc1nc2ccccc2s1)c1cccc2c1CN(c1ccc(-c3cnn(CC4CC5CCC(C4)N5C(=O)OCc4ccccc4)c3)c(C(=O)O)n1)CC2 (centres unmarked) [Example 84, 6-[8-(1,3-benzothiazol-2-ylcarbamoyl)-3,4-dihydroisoquinolin-2(1H)-yl]-3-[1-({8-[(benzyloxy)carbonyl]-8-azabicyclo[3.2.1]oct-3-yl}methyl)-1H-pyrazol-4-yl]pyridine-2-carboxylic acid] |  | > 1000 nM |
| O=C(Nc1nc2ccccc2s1)c1cccc2c1CN(c1ccc(-c3ccc(=O)n(CC45CC6CC(CC(C6)C4)C5)c3)c(C(=O)O)n1)CC2 [Example 85, 6-[8-(1,3-benzothiazol-2-ylcarbamoyl)-3,4-dihydroisoquinolin-2(1H)-yl]-6'-oxo-1'-(tricyclo[3.3.1.1^3,7]dec-1-ylmethyl)-1',6'-dihydro-3,3'-bipyridine-2-carboxylic acid] |  | 111 nM |
